From US6696480B2, “Upregulation of type III endothelial cell nitric oxide synthase by agents that disrupt actin cytoskeletal organization” (Brigham and Women's Hospital, Inc., priority 1998, dated 2004)
Like-named read-outs stand apart in the source and are kept apart here.

Assays:
[1] = system: human endothelial cells
From the text: Confluent endothelial cells were used for all treatment conditions.

[2] = system: ecNOS mRNA; assay: Northern blotting of ecNOS steady-state mRNA in endothelial cells; type: cell-based, human; set-up: ecNOS mRNA levels increased to / ecNOS mRNA levels, % of basal levels / effect on basal ecNOS mRNA levels: unit of the concentration uncertain; details: for effect on ecNOS expression (mRNA): 24 hours (FIGS. 9, 11), anaphicoline data not shown
Description: (§1) Equal amounts of total RNA (10-20 mg) were separated by 1.2% formaldehyde-agarose gel electrophoresis and transferred overnight onto Hybond nylon membranes. […] All Northern blots were subjected to stringent washing conditions (0.2× SSC/0.1% SDS at 65° C.) prior to autoradiography. RNA loading was determined by rehybridization with human GAPDH probe.

[3] = system: RhoB; assay: Rho GTP-binding activity, immunoprecipitation of [35S]GTP S-labeled RhoB; type: cell-based, human; set-up: RhoB GTP-binding activity: dose or concentration left out as unconfirmed
Description: (§2) The Rho GTP-binding activity was determined by immunoprecipitation of [^35 S]GTP S-labeled Rho. Briefly, membrane and cytosolic proteins were isolated as previously desribed (Liao, J K and Homcy, C J, J Clin Invest, 1993, 92:2168-2172). Proteins (20 mg) from control and treated endothelial cells were incubated for 30 min at 37° C. in a buffer containing [35 S]GTP S (20 nM), GTP (2 mM), MgCl22 (5 mM), EGTA (0.1 mM), NaCl (50 mM), creatinine phosphate (4 mM), phosphocreatinine kinase (5 units), ATP (0.1 mM), dithiothreitol (1 mM), leupeptin ([…]), aprotinin (50 mg/ml), and phenylmethanesulfonyl fluoride (PMSF, 2 mM). The assay was terminated with excess unlabeled GTP S (100 mM).
(§3) Samples were then resuspended in 100 ml of immunopricipitation buffer containing Triton-X (1%), SDS (0.1%), NaCl (150 mM), EDTA (5 mM), Tris-HCl (25 mM, pH 7.4), leupeptin (10 mg/ml), aprotinin (10 mg/ml), and PMSF (2 mM). […]
(§4) The pellets were washed four times in a buffer containing HEPES (50 mM, pH 7.4), NaF (100 mM), sodium phosphate (50 mM), NaCl (100 mM), Triton X-100 (1%), and SDS (0.1%). The final pellet containing the immunoprecipitated [35 S]GTP S-labeled Rho proteins was counted in a liquid scintillation counter (LS 1800, Beckman Instruments, Inc. Fullerton, Calif.). Nonspecific activity was determined in the presence of excess unlabeled GTP S (100 mM).

[4] = system: RhoA; assay: Rho GTP-binding activity, immunoprecipitation of [35S]GTP S-labeled RhoA; type: cell-based, human; set-up: RhoA GTP-binding activity: dose or concentration left out as unconfirmed
Description: as §2, §3, §4

[5] = system: ecNOS; assay: ecNOS activity, LNMA-inhibitable nitrite production (modified nitrite assay); type: cell-based, human; details: for nitrite production: L-mevalonate
[6] = system: ecNOS protein; set-up: ecNOS protein levels: dose or concentration left out as unconfirmed
[7] = system: G-protein as and b-actin mRNA; assay: Northern blotting of G-protein as and b-actin mRNA (selectivity); type: cell-based, human; details: normoxic or hypoxic conditions
Description: as §1

[8] = system: cerebral ischemia, left middle cerebral artery (MCA) occlusion; assay: Murine model of cerebral vascular ischemia (MCA occlusion); type: in vivo, SV-129 mice; details: lovastatin, at higher relative concentrations (data not shown)
From the text: Ischemia was produced by occluding the left middle cerebral artery (MCA) with a coated 8.0 nylon monofilament under anesthesia as described (Huang, Z et al., J Cereb Blood Flow Metab, 1996, 16:981-987, Huang, Z et al., Science, 1994, 265:1883-1885, Hara, H et al., J Cereb Blood Flow Metab, 1997, 1:515-526). Arterial blood pressure, heart rate, arterial oxygen pressure, and partial pressure of carbon dioxide were monitored as described (Huang, Z et al., J Cereb Blood Flow Metab, 1996, 16:981-987, Huang, Z et al., Science, 1994, 265:1883-1885, Hara, H et al., J Cereb Blood Flow Metab, 1997, 1:515-526). The filaments were withdrawn after 2 hours and after 24 h, mice were either sacrificed or tested for neurological deficits using a well-established, standardized, observer-blinded protocol as described (Huang, Z et al., J Cereb Blood Flow Metab, 1996, 16:981-987, Huang, Z et al., Science, 1994, 265:1883-1885, Hara, H et al., J Cereb Blood Flow Metab, 1997, 1:515-526). The motor deficit score range from 0 (no deficit) to 2 (complete deficit).
Brains were divided into five coronal 2-mm sections using a mouse brain matrix (RBM-200C, Activated Systems, Ann Arbor, Mich., USA). Infarction volume was quantitated with an image analysis system (M4, St. Catharines, Ontario, Canada) on 2% 2,3,5-triphenyltetrazolium chloride stained 2-mm slices. The levels of serum cholesterol, creatinine and transaminases were determined by the Tufts University Veterinary Diagnostic Laboratory (Grafton, Mass.).

[9] = system: RhoA; assay: Rho membrane translocation, immunoblot of membrane and cytosol, RhoA; type: cell-based, human; details: mevastatin
Description: (§5) Autoradiography was performed as described earlier.

[10] = system: RhoB; assay: Rho membrane translocation, immunoblot of membrane and cytosol, RhoB; type: cell-based, human; details: mevastatin
Description: as §5

[11] = system: ecNOS protein; assay: Overexpression of Rho mutants, immunoblot of ecNOS protein; type: cell-based, bovine; details: about 24 h after transfection
Description: For transfection studies, bovine rather than human endothelial cells were used because of their higher transfection efficiency by the calcium-phosphate precipitation method (12% vs <4%) (15). Bovine endothelial cells (60-70% confluent) were transfected with 15 mg of the indicated cDNAs: the insertless vector (pcDNA3), pcDNA3-c-myc-wtRhoA (wildtype RhoA), and pcDNA3-c-myc-N 19RhoA (dominant-negative RhoA mutant) (Gebbink, M et al., J Cell Biol, 1997, 137:1603-1613). As an internal control for transfection efficiency, pCMV. b-Gal plasmid (5 mg) was co-transfected. Preliminary results using b-galactosidase staining indicate that cellular transfection efficiency was approximately 10% to 14%. The b-galactosidase activity was determined by a chemiluminescence assay (Dual-Light, Tropix, Bedford, Mass.) using a Berthold L9501 luminometer. Approximately 24 h after transfection, cells were harvested for immunoblot analyses of ecNOS expression. The ecNOS protein levels were then standardized to the corresponding levels of transfected RhoA expression as determined by antisera to the corresponding c-myc tag.

[12] = mevastatin alone or in combination with GGPP or FPP

Compound: CC(=O)C(C)=NO [BDM, 2,3-butanedione 2-monoxime]
- nonspecific cytotoxicity as cause of increased ecNOS expression [1]: does not result from nonspecific cytotoxicity

Compound: C=C1[C@@H](C)[C@H]2[C@H](Cc3ccccc3)NC(=O)[C@]23[C@H](OC(C)=O)/C=C/[C@@](C)(O)C(=O)[C@@H](C)C/C=C/[C@H]3[C@@H]1O [Cytochalasin D]
- nonspecific cytotoxicity as cause of increased ecNOS expression [1]: does not result from nonspecific cytotoxicity
- effect on ecNOS expression (mRNA) [2]: upregulation of ecNOS

Compound: CC(C)=CCC/C(C)=C/CC/C(C)=C/COP(=O)(O)OP(=O)(O)O [FPP, farnesylpyrophosphate]
- observable adverse effects on cellular morphology / viability [1]: no observable adverse effects
- RhoB GTP-binding activity [3]: 2.7 ± 0.5 fmol/mg/min

Compound: CC(C)=CCC/C(C)=C/CC/C(C)=C/CC/C(C)=C/COP(=O)(O)OP(=O)(O)O [GGPP, geranylgeranylpyrophosphate]
- RhoA GTP-binding activity [4]: 4.1 ± 0.3 fmol/mg/min
- observable adverse effects on cellular morphology / viability [1]: no observable adverse effects
- effect on basal ecNOS mRNA levels ([2]; GGPP (10 (unit uncertain)) alone): did not significantly affect

Compound: CC[C@H](C)C(=O)O[C@H]1C[C@@H](C)C=C2C=C[C@H](C)[C@H](CC[C@@H]3C[C@@H](O)CC(=O)O3)[C@H]21 [lovastatin]
- concentration giving similar findings on ecNOS activity, compared to that of simvastatin ([5]; normoxia and hypoxia): 10 fold higher
- effect on ecNOS expression ([6]; not chemically-activated statin (10)): no effect
- change in G-protein as and b-actin mRNA levels [7]: Neither simvastatin nor lovastatin caused any significant change
- increase in ecNOS mRNA levels compared to ox-LDL alone ([2]; co-treatment with ox-LDL, lovastatin 10 mmol/L, 24 h): 3.6 fold
- ecNOS message increased to ([2]; lovastatin (10 μM) alone): 410±21%
- ecNOS message increased to ([2]; lovastatin (10 μM) under hypoxia): 350±27%
- increase in ecNOS mRNA levels compared to untreated cells ([2]; lovastatin alone): 36%
- increase in ecNOS mRNA level compared to untreated cells ([2]; ox-LDL + lovastatin 10 mmol/L, 24 h): 40±9%
- reduction of cerebral infarct size [8]: also occurred with lovastatin treatment

Compound: CC[C@H](C)C(=O)O[C@H]1CCC=C2C=C[C@H](C)[C@H](CC[C@@H]3C[C@@H](O)CC(=O)O3)[C@H]21 [mevastatin, Mevastatin]
- effect on cytosolic RhoA activity [4, 12]: not affected
- decrease in membrane localization of RhoA [9]: 60±5%
- increase in RhoA in the cytosol [9]: 65±4%
- concentrations that produce cytotoxicity [1]: > 50 µM
- observable adverse effects on cellular morphology / viability [1]: no observable adverse effects
- decrease in membrane localization of RhoB [10]: 78±6%
- increase in RhoB in the cytosol [10]: 87±7%
- effect on cytosolic RhoB activity [3, 12]: not affected
- potency on a molar basis compared to simvastatin ([2]; upregulation of ecNOS): approximately ten times less potent
- potency on a molar basis compared with lovastatin ([2]; upregulation of ecNOS): equally potent

Compound: COC(=O)Nc1nc2cc(C(=O)c3cccs3)ccc2[nH]1 [nocodazole, Methyl-(5-[2-thienylcarbonyl]-1H-benzimidazol-2-yl)carbamate]
- effect on ecNOS expression (mRNA) [2]: do not increase ecNOS expression

Compound: C3 transferase
- observable adverse effects on cellular morphology / viability [1]: no observable adverse effects
- nitrite accumulation [5]: 31±2.1 nmol/500,000 cells/24 hours
- increase in nitrite accumulation ([5]; 24 h): 3 fold
- increases in ecNOS expression at lower concentrations [6]: correspondingly smaller increases
- ecNOS protein levels augmented by ([6]; 48 h): 250±10%

Compound: L-mevalonate
- observable adverse effects on cellular morphology / viability [1]: no observable adverse effects
- nitrite production [5]: 8.6±2.9 nmol/500,000 cells/24 h
- nitrite production ([5]; 3% O2): 9.6±1.3 nmol/500,000 cells/24 h
- effect of co-treatment on upregulation of ecNOS expression by simvastatin alone ([6]; L-mevalonate (100) + simvastatin (1)): completely reversed
- effect on basal ecNOS expression ([6]; L-mevalonate alone (100)): did not have any appreciable effects
- ecNOS protein levels ([6]; L-mevalonic acid (400) co-treatment with simvastatin, hypoxia, 48 h): 35±2.4%
- ecNOS protein levels ([6]; L-mevalonic acid alone, cells exposed to hypoxia): 25±3.9%

Compound: N19RhoA
- increase in ecNOS protein levels [11]: 150±5%

Compound: anaphicoline
- effect on ecNOS expression (mRNA) [2]: do not increase ecNOS expression

Compound: wtRhoA: c-myc-tagged wildtype RhoA overexpressed by transfection
- reduction of basal ecNOS protein expression [11]: 15±4%
